According to patent US8044213B2, “Thiazolyl-benzimidazoles” (Hoffmann-La Roche Inc., priority 2008, dated 2011):

These molecules were tested against T1, GST-Plk1 (Homo sapiens, UniProt P53350) (assay: Biochemical Characterization Assay A (HTRF, phosphorylation of GST-p53)). Conditions: full-length GST-Plk1, GST-p53 substrate, HTRF signal.
T1 construct: Full-length, active GST-Plk1 was purified from Sf9 insect cells; made in house; host or cells: Sf9 insect cells
T1 sequence (P53350 whole entry): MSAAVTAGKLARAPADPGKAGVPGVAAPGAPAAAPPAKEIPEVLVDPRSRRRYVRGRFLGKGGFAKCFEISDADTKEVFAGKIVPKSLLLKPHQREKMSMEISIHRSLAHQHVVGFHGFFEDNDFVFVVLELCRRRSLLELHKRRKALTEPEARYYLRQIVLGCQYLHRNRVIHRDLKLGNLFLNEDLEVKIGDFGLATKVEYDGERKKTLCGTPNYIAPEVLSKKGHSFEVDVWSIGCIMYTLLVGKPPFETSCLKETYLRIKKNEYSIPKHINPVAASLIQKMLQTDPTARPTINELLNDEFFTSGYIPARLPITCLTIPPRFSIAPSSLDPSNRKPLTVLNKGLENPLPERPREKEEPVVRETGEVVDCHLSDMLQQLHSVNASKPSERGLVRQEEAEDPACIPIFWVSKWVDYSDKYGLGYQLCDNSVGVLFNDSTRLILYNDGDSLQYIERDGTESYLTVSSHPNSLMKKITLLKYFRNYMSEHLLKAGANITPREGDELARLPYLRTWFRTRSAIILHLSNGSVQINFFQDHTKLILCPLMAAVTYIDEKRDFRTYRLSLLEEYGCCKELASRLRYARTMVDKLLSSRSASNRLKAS
Experimental: Full-length, active GST-Plk1 was purified from Sf9 insect cells, and full-length GST-p53 was purified in E. coli. Anti-phospho p53 antibody was purchased from Cell Signaling Technology. Europium-conjugated anti-rabbit antibody was purchased from PerkinElmer Life and Analytical Sciences. APC-conjugated anti-GST antibody was purchased from Prozyme.
To two microliters of compound (0.6 nM-4 mM) in DMSO or plain DMSO for control wells, 38 microliters of 20 mM HEPES pH 7, 50 mM NaCl, 10 mM MgCl2, 0.5 mM TCEP, 0.1 mM sodium orthovanadate, 0.1 mg/ml BSA, and 0.05% Triton X-100 (Kinase Assay Buffer) were added. Eight microliters of the compound solution were added to a 384-well black microtiter plate, followed by six microliters of GST-p53 (17 ug/ml) and ATP (333 uM) in Kinase Assay Buffer. Six microliters of GST-Plk1 (3 ug/ml) in Kinase Assay Buffer were then added and the solution incubated at 37° C. for 35 minutes. Six microliters of solution containing 43 mM EDTA to stop the reaction and a 1:600 dilution of anti-phospho-p53 antibody in 20 mM HEPES pH 7, 50 mM NaCl, and 0.5 mg/ml BSA (Antibody Binding Buffer) were added and the solution incubated at 37° C. for 30 minutes. Six microliters of solution containing 9 nM europium-conjugated anti-rabbit antibody and 120 nM APC-conjugated anti-GST antibody in Antibody Binding Buffer were then added and the mixture incubated at room temperature for 1.5 hours. The HTRF signal was read on the Envision reader (PerkinElmer Life and Analytical Sciences).
(§1) The IC50 values for each compound were generated using an Excel template. The % conversion readings of Total and Blank were used as 0% and 100% inhibition. The percent inhibition values of reactions in the presence of compounds were calculated, and plotted against compound concentrations. All data were fitted into a Dose Response One Site model (4 parameter logistic model) as the following: (A+4B−A)/(1+((x/C)^13)))), with A and B as the bottom and top of the curve (highest and lowest inhibition), respectively, and C as IC50 and D as Hill Coefficient of the compound.
Work on `CN1CCN(Cc2ccc3ncn(-c4nc(-c5ccccc5)c(C(N)=O)s4)c3c2)CC1` [Example 1, 2-[6-(4-Methyl-piperazin-1-ylmethyl)-benzoimidazol-1-yl]-4-phenyl-thiazole-5-carboxylic acid amide] yielded an IC50 of 0.167 µM. Work on `CN1CCN(Cc2ccc3ncn(-c4nc(-c5cccc(Cl)c5)c(C(N)=O)s4)c3c2)CC1` [Example 2, 4-(3-Chloro-phenyl)-2-[6-(4-methyl-piperazin-1-ylmethyl)-benzoimidazol-1-yl]-thiazole-5-carboxylic acid amide] yielded an IC50 of 0.013 µM. With `CN1CCN(Cc2ccc3c(c2)ncn3-c2nc(-c3cccc(Cl)c3)c(C(N)=O)s2)CC1` [Example 3, 4-(3-Chloro-phenyl)-2-[5-(4-methyl-piperazin-1-ylmethyl)-benzoimidazol-1-yl]-thiazole-5-carboxylic acid amide] the IC50 was 1.1 µM. With `NC(=O)c1sc(-n2cnc3ccc(CN4CCOCC4)cc32)nc1-c1cccc(Cl)c1` [Example 4, 4-(3-Chloro-phenyl)-2-(6-morpholin-4-ylmethyl-benzoimidazol-1-yl)-thiazole-5-carboxylic acid amide] the IC50 was 0.306 µM. Work on `NC(=O)c1sc(-n2cnc3ccc(CN4CCN(CCO)CC4)cc32)nc1-c1cccc(Cl)c1` [Example 5, 4-(3-Chloro-phenyl)-2-{6-[4-(2-hydroxy-ethyl)-piperazin-1-ylmethyl]-benzoimidazol-1-yl}-thiazole-5-carboxylic acid amide] yielded an IC50 of 0.091 µM. `CN1CCC(NCc2ccc3ncn(-c4nc(-c5cccc(Cl)c5)c(C(N)=O)s4)c3c2)CC1` [Example 7, 4-(3-Chloro-phenyl)-2-{6-[(1-methyl-piperidin-4-ylamino)-methyl]-benzoimidazol-1-yl}-thiazole-5-carboxylic acid amide] was tested, and the IC50 was 0.443 µM. `NC(=O)c1sc(-n2cnc3ccc(CN4CCCCC4)cc32)nc1-c1cccc(Cl)c1` [Example 8, 4-(3-Chloro-phenyl)-2-(6-piperidin-1-ylmethyl-benzoimidazol-1-yl)-thiazole-5-carboxylic acid amide] gave an IC50 of 3.44 µM. For `CN1CCN(CCc2ccc3ncn(-c4nc(-c5cccc(Cl)c5)c(C(N)=O)s4)c3c2)CC1` [Example 9, 4-(3-Chloro-phenyl)-2-{6-[2-(4-methyl-piperazin-1-yl)-ethyl]-benzoimidazol-1-yl}-thiazole-5-carboxylic acid amide], the IC50 was 0.109 µM. `CN1CCC(NC(=O)c2ccc3ncn(-c4nc(-c5cccc(Cl)c5)c(C(N)=O)s4)c3c2)CC1` [Example 10, 3-[5-Carbamoyl-4-(3-chloro-phenyl)-thiazol-2-yl]-3H-benzoimidazole-5-carboxylic acid (1-methyl-piperidin-4-yl)-amide] was tested, and the IC50 was 2.02 µM. Work on `CN1CCN(C(=O)c2ccc3ncn(-c4nc(-c5cccc(Cl)c5)c(C(N)=O)s4)c3c2)CC1` [Example 11, 4-(3-Chloro-phenyl)-2-[6-(4-methyl-piperazine-1-carbonyl)-benzoimidazol-1-yl]-thiazole-5-carboxylic acid amide] yielded an IC50 of 0.215 µM. `CN1CCN(Cc2ccc3ncn(-c4nc(-c5ccccc5C(F)(F)F)c(C(N)=O)s4)c3c2)CC1` [Example 17, 2-[6-(4-Methyl-piperazin-1-ylmethyl)-benzoimidazol-1-yl]-4-(2-trifluoromethyl-phenyl)-thiazole-5-carboxylic acid amide] showed an IC50 of 1.14 µM. For `CN1CCN(Cc2ccc3c(c2)ncn3-c2nc(-c3ccc(Cl)cc3)c(C(N)=O)s2)CC1` [Example 18, 4-(4-Chloro-phenyl)-2-[5-(4-methyl-piperazin-1-ylmethyl)-benzoimidazol-1-yl]thiazole-5-carboxylic acid amide], the IC50 was > 80 µM. In the case of `CN1CCN(Cc2ccc3ncn(-c4nc(-c5ccc(Cl)cc5)c(C(N)=O)s4)c3c2)CC1` [Example 19, 4-(4-Chloro-phenyl)-2-[6-(4-methyl-piperazin-1-ylmethyl)-benzoimidazol-1-yl]-thiazole-5-carboxylic acid amide], the IC50 is reported as 0.499 µM. In the case of `CN1CCN(Cc2ccc3ncn(-c4nc(-c5ccccc5Cl)c(C(N)=O)s4)c3c2)CC1` [Example 20, 4-(2-Chloro-phenyl)-2-[6-(4-methyl-piperazin-1-ylmethyl)-benzoimidazol-1-yl]-thiazole-5-carboxylic acid amide], the IC50 is reported as 0.346 µM. `NC(=O)c1sc(-n2cnc3ccc(OC4CCNCC4)cc32)nc1-c1cccc(Cl)c1` [Example 21, 4-(3-Chloro-phenyl)-2-[6-(piperidin-4-yloxy)-benzoimidazol-1-yl]-thiazole-5-carboxylic acid amide] was tested, and the IC50 was 0.08 µM. Molecule `NC(=O)c1sc(-n2cnc3ccc(OC4CCCCC4)cc32)nc1-c1cccc(Cl)c1` [Example 25, 4-(3-Chloro-phenyl)-2-(6-cyclohexyloxy-benzoimidazol-1-yl)-thiazole-5-carboxylic acid amide] has an IC50 of 0.66 µM. In the case of `NC(=O)c1sc(-n2cnc3ccc(OCCN4CCOCC4)cc32)nc1-c1cccc(Cl)c1` [Example 26, 4-(3-Chloro-phenyl)-2-[6-(2-morpholin-4-yl-ethoxy)-benzoimidazol-1-yl]-thiazole-5-carboxylic acid amide], the IC50 is reported as 0.166 µM. With `NC(=O)c1sc(-n2cnc3ccc(OCCCN4CCOCC4)cc32)nc1-c1cccc(Cl)c1` [Example 30, 4-(3-Chloro-phenyl)-2-[6-(3-morpholin-4-yl-propoxy)-benzoimidazol-1-yl]-thiazole-5-carboxylic acid amide] the IC50 was 0.021 µM. `CN(C)CCCOc1ccc2ncn(-c3nc(-c4cccc(Cl)c4)c(C(N)=O)s3)c2c1` [Example 31, 4-(3-Chloro-phenyl)-2-[6-(3-dimethylamino-propoxy)-benzoimidazol-1-yl]-thiazole-5-carboxylic acid amide] was tested, and the IC50 was 0.161 µM. In the case of `CN1CCN(CCCOc2ccc3ncn(-c4nc(-c5cccc(Cl)c5)c(C(N)=O)s4)c3c2)CC1` [Example 33, 4-(3-Chloro-phenyl)-2-{6-[3-(4-methyl-piperazin-1-yl)-propoxy]-benzoimidazol-1-yl}-thiazole-5-carboxylic acid amide], the IC50 is reported as 0.032 µM. With `CN1CCN(Cc2ccc3ncn(-c4nc(-c5ccc(C(F)(F)F)cc5)c(C(N)=O)s4)c3c2)CC1` [Example 47, 2-[6-(4-Methyl-piperazin-1-ylmethyl)-benzoimidazol-1-yl]-4-(4-trifluoromethyl-phenyl)-thiazole-5-carboxylic acid amide] the IC50 was 0.661 µM.

These molecules were tested against T2, PLK1 (Homo sapiens, UniProt P53350) (assay: Biochemical Characterization Assay B (peptide substrate, LABCHIP EZ Reader II)). Conditions: PLK1, peptide RRRAGALMDASFEEQ-CONH2, % conversion on LABCHIP EZ Reader II.
T2 construct: Full-length, active GST-Plk1 was purified from Sf9 insect cells; GST (N); made in house; host or cells: Sf9 insect cells
T2 sequence (P53350 whole entry): as above
Experimental: Compounds were serially diluted to 6400, 2133, 711, 237, 79, 26, 8.78, 2.93, 0.98 and 0.33 μM in 100% DMSO. Diluted compound was further diluted 20 fold with Kinase Assay Buffer (KAB). Peptide RRRAGALMDASFEEQ-CONH2 (MW 2090) was diluted to 1.2 μM with KAB and ATP was added to 400 μM. PLK1 stock, prepared as described above, was diluted to 3 μg protein/mL with KAB right before it was added to MATRIX 384-Well Polypropylene Black Plates to start the reaction. 20 μL of KAB diluted compounds (or 5% DMSO in KAB for Total and Blank), 20 μL of KAB diluted peptide with ATP and 40 μL of KAB diluted PLK1 solution (KAB without PLK 1 for Blanks) were transferred to each well of the polypropylene plates. The reaction mixtures were incubated at room temperature for 40 minutes. Reactions were stopped by addition of 10 uL Reaction Stopping Buffer (RSB) to each well. Plates were then read on LABCHIP EZ Reader II from Caliper Life Science.
as §1
Work on `COc1cc2ncn(-c3nc(-c4cccc(Cl)c4)c(C(N)=O)s3)c2cc1CN1CCN(C)CC1` [Example 46, 4-(3-Chloro-phenyl)-2-[5-methoxy-6-(4-methyl-piperazin-1-ylmethyl)-benzoimidazol-1-yl]-thiazole-5-carboxylic acid amide] yielded an IC50 of 0.013 µM. With `NC(=O)c1sc(-n2cnc3ccc(CN(CCCN4CCOCC4)CCCN4CCOCC4)cc32)nc1-c1cccc(Cl)c1` [Example 49, 2-(6-{[Bis-(3-morpholin-4-yl-propyl)-amino]-methyl}-benzoimidazol-1-yl)-4-(3-chloro-phenyl)-thiazole-5-carboxylic acid amide] the IC50 was 0.566 µM. `CN(CCCN1CCOCC1)Cc1ccc2ncn(-c3nc(-c4cccc(Cl)c4)c(C(N)=O)s3)c2c1` [Example 50, 4-(3-Chloro-phenyl)-2-(6-{[methyl-(3-morpholin-4-yl-propyl)-amino]-methyl}-benzoimidazol-1-yl)-thiazole-5-carboxylic acid amide] was tested, and the IC50 was 0.085 µM.
